# How the values were obtained:
# [1] = target: T1, amyloid beta aggregates (Abeta40) (Homo sapiens, UniProt P05067); assay: In vitro binding assay (fluorescence labeling ability) to amyloid beta aggregates; conditions: compound 10 μM, PBS, 30 min incubation
# T1 construct: the synthesized Abeta40 (Amyloid Beta 40) peptide was dissolved in PBS; host or cells: synthetic peptide
# Protocol: (§1) Experimental Example 2-1: Tau and amyloid beta aggregation induction For amyloid aggregation induction, the synthesized Abeta40 (Amyloid Beta 40) peptide was dissolved in PBS at a concentration of 0.5 mg/ml to induce aggregation for 7 days at 37° C. and 200 rpm with shaking. To induce aggregation of tau proteins, aggregation of Tau-K18 protein (0.5 mg/ml in PBS) purified and isolated from E. coli with heparin (0.1 mg/ml) and DTT (100 μM) was induced at 37° C. and 200 rpm for 7 days under shaking conditions. […] At this time, thioflavin S (Th S), which is known to bind to beta-sheet structures such as tau and amyloid aggregates, was used as a control group (Ex: 430 nm, Em: 480-610 nm). Specifically, in order to determine the labeling ability of newly synthesized compounds to tau aggregate proteins, a 25 μl dilution of a 10 μM labeling substance in PBS and 25 id of a 0.125 mg/ml tau or amyloid pre-aggregate or aggregate diluted in PBS were each incubated for 30 minutes, and then a fluorescence spectrum reaction was measured using a spectrophotometer. Selectivity analysis for tau aggregates and amyloid beta aggregates of the novel synthetic compounds of the present invention was performed as described above, and the resulting in vitro fluorescence changes are summarized in Table 2 and FIG. 1 below.
# [2] = target: T2, tau aggregates (Tau-K18 protein) (Homo sapiens, UniProt P10636); assay: In vitro binding assay (fluorescence labeling ability) to tau aggregates; conditions: for SIaβ: selectivity index = fluorescence intensity of probe bound to Tau aggregate / bound to Aβ aggregate / SItaumono: selectivity index, tau aggregate versus tau monomer / FItau: fold increase = fluorescence intensity of probe bound to tau aggregate / probe (free): compound 10 μM; for FItau: fold increase = fluorescence intensity of probe bound to tau aggregate / probe (free): PBS, 30 min incubation
# T2 construct: aggregation of Tau-K18 protein (0.5 mg/ml in PBS) purified and isolated from E. coli; made in house; host or cells: E. coli
# T2 sequence (P10636 561-685 limits assumed): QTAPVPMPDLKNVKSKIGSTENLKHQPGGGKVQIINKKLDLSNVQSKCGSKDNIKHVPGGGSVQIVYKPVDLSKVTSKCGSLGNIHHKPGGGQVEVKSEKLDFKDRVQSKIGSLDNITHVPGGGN
# Protocol: as §1
# [3] = Measurement of absorbance and fluorescence of synthesized compound in ethanol; assay type: physicochemical; conditions: 10 μM in ethanol; for λem: Maximum emission wavelength / λex: Maximum excitation wavelength: average of three measurements; for Stokes shift: difference between excitation and emission
# Protocol: In order to investigate the optical properties of the newly synthesized compound in the present invention, the absorbance was measured using a V-730 UV-visible spectrophotometer manufactured by JASCO, and fluorescence was measured using a FlexStation 3 multi-mode microplate reader manufactured by Molecular Devices. Absorbance and fluorescence were measured three times at a concentration of 10 μM in ethanol, and the average thereof is shown in Table 1 below. At this time, T807 (AV-1451) as a Tau positron-emission-tomography (PET) tracer and Thioflavin S, which are commercially available to detect tau production in vivo, were used as a control group.
# [4] = target: bovine serum albumin (BSA) (Bos taurus, UniProt P02769); assay: Measurement of non-specific binding using BSA; conditions: compound 10 μM, 0.25 mg/ml BSA, 30 min incubation
# bovine serum albumin (BSA), sequence (P02769 25-607): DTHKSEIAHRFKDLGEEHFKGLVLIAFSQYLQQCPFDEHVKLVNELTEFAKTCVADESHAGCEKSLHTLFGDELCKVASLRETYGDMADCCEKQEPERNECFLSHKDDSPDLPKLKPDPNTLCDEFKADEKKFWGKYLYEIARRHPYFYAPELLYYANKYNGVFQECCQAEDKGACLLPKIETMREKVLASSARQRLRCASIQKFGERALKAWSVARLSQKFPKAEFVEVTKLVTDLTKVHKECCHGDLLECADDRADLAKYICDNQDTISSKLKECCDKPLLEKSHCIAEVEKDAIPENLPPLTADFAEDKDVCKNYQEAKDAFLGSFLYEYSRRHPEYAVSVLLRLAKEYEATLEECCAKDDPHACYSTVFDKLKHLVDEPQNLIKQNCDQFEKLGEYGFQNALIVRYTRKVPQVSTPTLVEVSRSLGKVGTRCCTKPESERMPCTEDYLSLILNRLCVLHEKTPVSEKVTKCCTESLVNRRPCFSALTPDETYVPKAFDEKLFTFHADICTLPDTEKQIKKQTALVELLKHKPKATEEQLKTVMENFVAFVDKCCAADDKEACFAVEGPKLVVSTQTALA
# Protocol: In order to exclude non-specific binding of the compound to serum, reactivity between the compound and bovine serum albumin (BSA) was further tested. 25 μl of a 10 μM compound was incubated along with 25 μl of 0.25 mg/ml BSA for 30 minutes, and then the fluorescence spectrum reaction was measured using a spectrophotometer. The BSA response was conducted to identify non-selective binding to other proteins in the blood when applied to patients as an imaging agent.
# T1 sequence (P05067 672-711 limits assumed): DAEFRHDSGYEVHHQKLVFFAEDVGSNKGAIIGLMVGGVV
Compound,FIAβ: fold increase = fluorescence intensity of probe bound to Aβ aggregate / probe (free) [1],SIaβ: selectivity index = fluorescence intensity of probe bound to Tau aggregate / bound to Aβ aggregate [2],"SItaumono: selectivity index, tau aggregate versus tau monomer [2]",FItau: fold increase = fluorescence intensity of probe bound to tau aggregate / probe (free) [2],λem: Maximum emission wavelength [3],λex: Maximum excitation wavelength [3],Stokes shift [3],FIBSA: fold increase = fluorescence intensity of probe bound to BSA / probe (free) [4],selectivity for tau aggregates over amyloid aggregates ([2]; in vitro screening as fluorescent probes)
"CNc1ccc(/C=C/C=C/C(=O)c2ccc3cc(OC)ccc3n2)cc1 [Compound 16b, (2E,4E)-1-(6-methoxyquinolin-2-yl)-5-(4-(methylamino)phenyl)penta-2,4-dien-1-one]",9.45,1.0,2.1,9.22,714 nm,475 nm,239 nm,56.71,–
"COc1ccc2nc(/C=C/C=C/c3cccc(Cl)c3)ccc2c1 [Compound 15f, 6-methoxy-2-((1E,3E)-4-(3-chlorophenyl)buta-1,3-dien-1-yl)quinolone]",3.27,1.2,4.4,3.91,415 nm,360 nm,55 nm,1.75,–
"COc1ccc2nc(/C=C/C=C/c3ccc([N+](=O)[O-])nc3)ccc2c1 [Compound 15e, 6-methoxy-2-((1E,3E)-4-(6-nitropyridin-3-yl)buta-1,3-dien-1-yl)quinolone]",0.44,2.2,4.5,0.95,587 nm,389 nm,198 nm,0.17,–
"CNc1ccc(/C=C/C=C/c2ccc3cc(OC)ccc3n2)cc1 [Compound 15b, 4-((1E,3E)-4-(6-methoxyquinolin-2-yl)buta-1,3-dien-1-yl)-N-methylanaline]",0.32,2.0,3.6,0.63,602 nm,400 nm,202 nm,0.26,–
"COc1ccc2nc(/C=C/C=C/c3ccc(F)cc3F)ccc2c1 [Compound 15h, 6-methoxy-2-((1E,3E)-4-(2.4-difluorophenyl)buta-1,3-dien-1-yl)quinolone]",1.56,1.5,2.8,2.35,415 nm,360 nm,55 nm,0.70,–
"COc1ccc2nc(/C=C/C(=O)c3ccc(N(C)C)cc3)ccc2c1 [Compound 13a, (E)-1-(4-(dimethylamino)phenyl)-3-(6-methoxyquinolin-2-yl)prop-2-en-1-one]",1.10,4.6,5.2,5.12,601 nm,339 nm,202 nm,1.23,4.6 times
"Nc1ccc(C(=O)/C=C/c2ccc3cc(O)ccc3n2)cc1 [Compound 13c, (E)-1-(4-aminophenyl)-3-(6-hydroxyquinolin-2-yl)prop-2-en-1-one]",1.67,2.8,3.2,4.63,570 nm,378 nm,192 nm,1.72,–

# From patent US12050224B2, “Compounds useful as near-infrared fluorescent probes selectively binding to tau aggregates and method of preparing the same” (KOREA INSTITUTE OF SCIENCE AND TECHNOLOGY, priority 2020, dated 2024)
